The values that follow come from the NIST ThermoML archive (doi:10.1016/j.jct.2013.03.001).

± gives the expanded uncertainty stated by the source.

The conditions of data set [1]: Crystal; DTA.
Data set [2] in a line: Molar enthalpy of transition or fusion. Conditions: Crystal; DSC.
Data set [3] is described as follows: molar enthalpy of vaporization or sublimation. Conditions: 298.15 K; Crystal; Static calorimetry.

As to `O=c1cccc(Cl)[nH]1` [2(1H)-pyridinone, 6-chloro-], the Normal melting temperature in data set [1] was found to be 128.46 ± 0.39 °C. Further, in data set [2], the “Molar enthalpy of transition or fusion” value was determined as 4.39 ± 0.112 kcal/mol. The molar enthalpy in data set [3] amounted to 21.9 ± 0.311 kcal/mol.
The corresponding values for `Oc1cccnc1Cl` [2-chloro-3-hydroxypyridine] are 169.99 ± 0.41 °C, 6.39 ± 0.148 kcal/mol and 21.3 ± 0.43 kcal/mol.
Regarding `Oc1cncc(Cl)c1` [3-chloro-5-hydroxypyridine], the Normal melting temperature in data set [1] came to 159.76 ± 0.41 °C. The “Molar enthalpy of transition or fusion” value in data set [2] was 5.16 ± 0.139 kcal/mol. Further, the molar enthalpy in data set [3] worked out at 23.8 ± 0.478 kcal/mol.
